Like-named read-outs stand apart in the source and are kept apart here.
How the values were obtained:
[1] = Experimental distribution coefficient (eLogD) by LC retention time; assay type: physicochemical; conditions: for chromatographic logD: C18 column (LC retention time)
Procedure: For the eLogD assays ([Waring, 2010]), each compound (5 μl) from a 5 mM stock solution was diluted in 245 μl of a solution containing buffers A (5% MeOH, 10 mM ammonium acetate, pH 7.4) and B (100% MeOH, pH 7.4) (50:50). Nine control compounds with known eLogD and column retention times (acyclovir, atenolol, antipyrine, fluconazole, metoprolol, carbamazepine, ketoconazole, tolnaftate, and amiodarone; eLogD values ranging from −1.86 to 6.1) were subjected to LC-MS/MS in triplicate before and after the analysis of the test compounds. Retention times were recorded for each control and test compound in a C18 column. The retention time of each control compound was plotted against the respective eLogD values described in the literature ([Lombardo et al., 2002]; [Lombardo et al., 2004]; [Alelyunas et al., 2010]). The resulting linear equation (y = mx + b) was used to calculate the eLogD values of the test compounds, in which x is the retention time in minutes and y is the eLogD value.

[2] = In vitro metabolic stability in human liver microsomes; assay type: in vitro ADME; conditions: for CLint scaled at 5 µM: human, liver microsomes
Procedure: Isolated mouse (BD Gentest, Bedford, MA) and human liver microsomes (XenoTech, Kansas City, KS) ([Plant, 2004]) were added at a final concentration of 0.25 mg/ml to a solution containing 40 mM dibasic potassium phosphate and 10 mM monobasic potassium phosphate. Stock solutions of compounds at 5 mM were prepared in 100% DMSO. A 50:50 quenching solution of acetonitrile (ACN) and methanol (MeOH) was prepared. An NADPH solution was prepared at 10 mM. The preparations containing the microsomes were added to each well of the incubation plate (450 µl), which was then heated to 37°C for 10 min. The compounds were added to the respective wells of the test plate (2 µl). Then, 300 µl of the microsome preparation was added to each well of the test plate. The test plate was heated under gentle rotation for 5 min at 37°C. Next, 90 µl of the mixture contained in the test plate was added to the incubation plate, making a final volume of 540 µl. Samples were collected at the following incubation times: 0, 5, 10, 15, 20, and 30 min. To the 0 min sample plate, quenching solution (180 µl), NADPH (6 µl), and the incubation plate mixture (54 µl) were added to each well. The sample plate was then sealed, homogenized, and stored at 4°C. Then, 54 µl of the NADPH solution was added to the incubation plate, which was homogenized. Before the collection of each sample at the established times, 45 µl of the quenching solution was added to each well of the corresponding sample plates. After reaching the incubation times, 60 µl of the mixture contained in the incubation plate was added to the corresponding sample plates. The sample plates were then sealed and stored at 4°C. After the collection of the last sample (30 min), all sample plates were centrifuged at 3,800 rpm for 30 min. The supernatant from each well was collected and transferred to clean plates for mass spectrometry. Five to 10 µl of each sample was injected into an AB Sciex Triple Quad 5500 LC-MS/MS instrument.
For the biotransformation experiments and analysis of metabolites in microsomes, an Ultra-High-Pressure Liquid Chromatography instrument (UHPLC, Thermo Accela, Waltham, MA) ([Spaggiari et al., 2014]) connected to an automatic sample injector and a 1250 series pump was used. The UHPLC system was connected to a Thermo Fisher (Waltham, MA) LTQ Orbitrap mass spectrometer. For all other analyses, an AB Sciex Triple Quad 5500 coupled to a UHPLC equipped with a UV 1290 diode detector (Agilent Technologies, Santa Clara, CA) and a CTC PAL self-collecting system (LEAP Technologies, Carrboro, NC) was used. Q1 MS positive ion mode (300–500 Da) was used to detect the ions of the parent compounds. The UV detector was operated in spectral mode (250–280 nm). A Hypersil Gold C18 (2.1 mm × 100 mm, 1.9 µm, Thermo Fisher) HPLC column was used. The mobile phases were solvent A (0.1% formic acid in water) and solvent B (0.1% formic acid in ACN). The flow was adjusted to 0.55 ml/min, and the injection volume was adjusted to […]. The gradient started with 1% solvent B for 0.4 min, reached 40% (solvent B) in 2.3 min and 95% (solvent B) in 0.67 min, was maintained for 0.5 min, and returned to the initial condition of 1%. This condition was maintained for 1 min before injection of the next sample. The peak area ratio (peak area of the test compounds/peak area of the control compounds) was converted to the percentage of remaining compound, with the 0 min time point ratio set to 100%. T½ and CLint were calculated from the percentage of remaining compound versus the incubation time. From the resulting function, the slope (k) was determined. The equations T1/2 (min) = ln(2)/k and CLint in vitro (μL/min/mg) = k*1000/0.25 were used to determine T½ and CLint.

[3] = system: T. cruzi intracellular amastigotes; test: Assay against T. cruzi intracellular amastigotes (Tulahuen lacZ strain in HFF-1 fibroblasts); assay type: cell-based, Trypanosoma cruzi; conditions: Trypanosoma cruzi
Procedure: Biological assays against T. cruzi intracellular amastigotes were performed as reported previously using the T. cruzi Tulahuen strain, which is genetically engineered to express the E. coli β-galactosidase gene lacZ ([Buckner et al., 1996]). β-Galactosidase catalyzes a colorimetric reaction with chlorophenol red β-D-galactopyranoside (CPRG, Sigma Chemical Co., St. Louis, MO) as the substrate. The assays were conducted in 96-well tissue culture plates, and the compounds to be tested were prepared in 100% DMSO. Epimastigotes were maintained in liver infusion tryptone (LIT) enriched with 10% fetal calf serum (FCS), streptomycin, and penicillin at 28°C. Epimastigotes were converted to trypomastigotes by incubation in Grace’s insect medium (Sigma–Aldrich, St. Louis, MO) enriched with 10% FCS at 28°C. Human HFF-1 fibroblasts were seeded at 2 × 10^3/well in 80 μl of RPMI 1640 without phenol red and incubated overnight at 37°C and 5% CO2. Trypomastigotes were seeded at 1.0 × 10^4/well in 20 μl of RPMI 1640, and the plates were incubated at 37°C and 5% CO2. The next day, the synthesized compounds were added (50 μl) in 3-fold serial dilutions at concentrations ranging from 0.4 to 300 μM, and the plates were incubated at 37°C and 5% CO2. Each compound concentration was assayed in triplicate. After 120 h, 50 μl of chlorophenol red β-D-galactopyranoside (CPRG, Sigma–Aldrich) and IGEPAL CA-630 (Sigma–Aldrich) at a final concentration of 0.1% were added. The absorbance was measured at a wavelength of 570 nm in an automated microplate reader. The data were transferred to SigmaPlot 10.0 (Systat Software Inc., Erkrath, Germany) to determine the IC50 values. Benznidazole (BZ, Sigma–Aldrich) was used as a positive control, and untreated wells (100% parasite growth) were used as negative controls in all plates. All compounds were tested in three independent assays.

[4] = Table 5, CLint/fu, read-out: CLint_u (L/h/kg) human (converted)
[5] = Table 5, read-out: CLint (L/h/kg) human (converted)
[6] = Table S5, CLint/fu, read-out: CLint_u (L/h/kg) Human (converted)
[7] = Table S5, read-out: CLint (L/h/kg) Human (converted)
[8] = HFF-1, Table 4, mean ± SD of three assays
[9] = HFF-1, 120 h, Table 3, 120 h, mean ± SD of three assays

| Structure (SMILES) | chromatographic logD ([1]; pH 7.4, Table S5) | chromatographic logD ([1]; pH 7.4, Table 3, pH 7.4) | eLogD ([1]; Table S5) | CLint scaled at 5 µM [2, 6] [L/h/kg] | CLint scaled at 5 µM [2, 7] [L/h/kg] | IC50 [3, 8] [µM] | IC50 [3, 9] [µM] | also measured |
| --- | --- | --- | --- | --- | --- | --- | --- | --- |
| O=C(Cn1ccnc1[N+](=O)[O-])NCc1ccccc1 [BZ, benznidazole, reference compound] | – | 0.84 | 0.84 | 1.5 | 1.5 | 3 ± 0.6 | – | chromatographic logD ([1]; pH 7.4, Table 5): 0.8; CLint scaled at 5 µM [2, 4]: 1.5 L/h/kg; CLint scaled at 5 µM [2, 5]: 1.5 L/h/kg; IC50 ([3]; HFF-1, Table 3, 120 h, mean ± SD of three assays): 1.45 ± 0.4 µM |
| O=C(COc1ccccc1)NCCc1nc2ccccc2[nH]1 [Compound 1] | – | 2.9 | 2.90 | < 1.5 | < 1.5 | 3.9 ± 0.3 | 3.9 ± 0.3 | – |
| CC(=O)Nc1ccc(OCC(=O)NCCc2nc3ccccc3[nH]2)cc1 [Compound 2] | – | 1.92 | 1.92 | < 1.5 | < 1.5 | 12.1 ± 1.3 | 4.5 ± 0.6 | – |
| CC(=O)Nc1cccc(OCC(=O)NCCc2nc3ccccc3[nH]2)c1 [Compound 3] | – | 2.26 | 2.26 | 6.9 | 6.9 | 5 ± 1 | 5 ± 1 | CLint_u (L/h/kg) Human ([2]; Table S5, CLint/fu): 6.90 L/h/kg |
| O=C(COc1ccc(N2C(=O)CCC2=O)cc1)NCCc1nc2ccccc2[nH]1 [Compound 4] | 1.59 | – | – | < 1.51 | < 1.5 | – | – | – |
| O=C(COc1ccc(NC(=O)CCCO)cc1)NCCc1nc2ccccc2[nH]1 [Compound 5] | 1.83 | – | – | 1.53 | 1.5 | ~50 | – | – |
| O=C(COc1cccc(N2C(=O)CCC2=O)c1)NCCc1nc2ccccc2[nH]1 [Compound 6] | 1.8 | – | – | 3.54 | 3.54 | – | – | CLint_u (L/h/kg) Human ([2]; Table S5, CLint/fu): 3.54 L/h/kg |
| O=C(COc1cccc(NC(=O)CCCO)c1)NCCc1nc2ccccc2[nH]1 [Compound 7] | 2.23 | – | – | < 1.5 | – | – | – | – |
| O=C(COc1cccc([N+](=O)[O-])c1)NCCc1nc2ccccc2[nH]1 [Compound 8] | – | 2.98 | 2.98 | 6.58 | 6.58 | 3.5 ± 0.7 | 3.5 ± 0.7 | – |
| Nc1cccc(OCC(=O)NCCc2nc3ccccc3[nH]2)c1 [Compound 9] | – | 1.88 | 1.88 | 11.1 | 11 | – | 5.4 ± 0.9 | – |
| O=C(COc1ccc2cc(O)ccc2c1)NCCc1nc2ccccc2[nH]1 [Compound 10] | – | 3.17 | 3.17 | 8.15 | 6.66 | 14.6 ± 0.7 | 14.6 ± 0.7 | – |
| O=C(COc1ccc2ccc(O)cc2c1)NCCc1nc2ccccc2[nH]1 [Compound 11] | – | – | 3.37 | 14.2 | 9.48 | – | 2.8 ± 0.6 | eLogD ([1]; Table 3, pH 7.4): 2.26 |
| COc1ccc2cc(OCC(=O)NCCc3nc4ccccc4[nH]3)ccc2c1 [Compound 12] | – | 3.89 | 3.89 | 233 | 25.6 | – | 16.6 ± 2.4 | – |
| Cc1ccccc1OCC(=O)NCCc1nc2ccccc2[nH]1 [Compound 17] | – | – | – | – | – | 2.81 ± 0.75 | – | chromatographic logD ([1]; pH 7.4, Table 5): 3.6; CLint scaled at 5 µM [2, 4]: 31.2 L/h/kg; CLint scaled at 5 µM [2, 5]: 23.9 L/h/kg |
| N#Cc1ccccc1OCC(=O)NCCc1nc2ccccc2[nH]1 [Compound 31] | – | – | – | – | – | – | – | chromatographic logD ([1]; pH 7.4, Table 5): 2.6; CLint scaled at 5 µM [2, 4]: 6.6 L/h/kg; CLint scaled at 5 µM [2, 5]: 5.6 L/h/kg |
| O=C(CCc1ccccc1Br)NCCc1nc2ccccc2[nH]1 [Compound 36] | – | – | – | – | – | – | – | chromatographic logD ([1]; pH 7.4, Table 5): 3.8; CLint scaled at 5 µM [2, 4]: 38.2 L/h/kg; CLint scaled at 5 µM [2, 5]: 28.8 L/h/kg |

Further lines, with some results ahead:

| chromatographic logD ([1]; pH 7.4, Table S5) | Structure (SMILES) | chromatographic logD ([1]; pH 7.4, Table 3, pH 7.4) | eLogD ([1]; Table S5) | CLint scaled at 5 µM [2, 6] [L/h/kg] | CLint scaled at 5 µM [2, 7] [L/h/kg] | IC50 [3, 8] [µM] | IC50 [3, 9] [µM] | also measured |
| --- | --- | --- | --- | --- | --- | --- | --- | --- |
| 1.31 | O=C(COc1ccc2c(C(=O)O)cccc2c1)NCCc1nc2ccccc2[nH]1 [Compound 15] | – | – | < 1.5 | < 1.5 | – | – | – |
| 4.5 | O=C(COc1ccccc1)NCCc1nc2ccccc2n1CCOc1ccccc1Br [Compound 19] | – | – | 949 | 112 | – | – | – |
| 4.24 | O=C(COc1ccccc1)NCCc1nc2ccccc2n1CCOCc1ccccc1 [Compound 21] | – | – | 496 | 235 | – | – | – |
| 4.81 | Cc1ccccc1OCC(=O)NCCc1nc2ccccc2n1CCOc1ccccc1Br [Compound 22] | – | – | 3870 | 123 | – | – | – |
| 4.69 | O=C(COc1ccccc1Br)NCCc1nc2ccccc2n1CCOc1ccccc1Br [Compound 23] | – | – | 3370 | 136 | – | – | – |
| 3.13 | COCCn1c(CCNC(=O)COc2ccccc2)nc2ccccc21 [Compound 29] | – | – | 23 | 23 | – | – | – |
| 4.04 | O=C(COc1ccccc1)NCCc1nc2ccccc2n1-c1ccccc1 [Compound 30] | – | – | 92.4 | 58.1 | – | – | – |
